For assay [1], the system named is THP-1 cells (phagocytosis of opsonized Escherichia coli). Put plainly: Antibody-dependent phagocytosis assay. The class given is cell-based. The settings on record: Homo sapiens; IFNγ differentiated THP-1 cells, opsonized pHrodo Escherichia coli, 3 hours; read-out: IC50 upon phagocytosis inhibition. Here is the method:
THP-1 cells (2×10^5 cells/ml), which were human monocytoid cells, were cultured in the presence of 10 ng/ml IFNγ for 2 days, and they were induced to differentiate into macrophage-like cells. The differentiation-induced THP-1 cells were recovered, and the cells (5×10^4 cells/well) were then allowed to react with a predetermined concentration of test compound at room temperature for 30 minutes. Thereafter, Escherichia coli (Life Technologies) labeled with a pH-sensitive dye (pHrodo) was subjected to opsonization using an anti-Escherichia coli antibody (Life Technologies). Then, the resultant was added to the THP-1 cells obtained above, followed by incubation at 37° C. for 3 hours. Opsonized Escherichia coli and cell-permeable fluorescent dye (Calcein AM) were simultaneously added thereto, followed by quantitative determination of phagocytosis of opsonized Escherichia coli in viable cells using an IN Cell Analyzer.

The target in assay [2] is T1, glutathione S-transferase (GST)-linked full-length human Syk protein (Homo sapiens, UniProt P43405).
T1 construct: glutathione S-transferase (GST)-linked full-length human Syk protein; purchased Carna Biosciences; host or cells: Baculovirus expression system
Put plainly: Syk enzyme assay. The assay is classed as biochemical. The settings on record: 0.83 nM Syk, time-resolved fluorescence; read-out: IC50 of Syk-inhibitory activity. Put shortly: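 Phosphotyrosine on a biotin-peptide substrate (0.5 μM) was read by time-resolved fluorescence at 615 and 665 nm with Eu-anti-pTyr antibody and APC-streptavidin after 1 h EDTA stop.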

Assay [3] concerns THP-1 cells (TNFα secretion on human IgG-coated plate). In words: TNFα generation assay. The assay is classed as cell-based. The note with it: IFN-γ differentiated THP-1 cells, 7 hours, AlphaLISA, read-out: IC50 of TNFα generation inhibitory activity. Put shortly:
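Secreted TNFα was measured by AlphaLISA after 7 h of culture on human IgG-coated wells (coating at 10 μg/ml), with 5×10^4 cells/well. Before plating, the cells had been treated with compound for 30 min at room temperature. The cells were macrophage-like THP-1, produced by a 2-day exposure to 10 ng/ml IFN-γ.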
(In general: In Alpha technology, singlet oxygen from a donor bead excites a nearby acceptor bead.)

Some results are limits rather than exact numbers.

As for `NC(=O)c1cc(F)c(N[C@@H]2CCCC[C@@H]2N)nc1Nc1cnc(OC(F)F)c(-n2nccn2)c1` [Example 2-238, 6-(((1R,2S)-2-aminocyclohexyl)amino)-2-((6-(difluoromethoxy)-5-(2H-1,2,3-triazol-2-yl)pyridin-3-yl)amino)-5-fluoronicotinamide], the IC50 in assay [1] is less than 1000 nM; in assay [2], 10 to 50 nM. In the case of `COC[C@@H](Nc1nc(Nc2cnc(C)c(-n3nccn3)c2)c(C(N)=O)cc1F)[C@H](C)N` [Example 2-197, 6-(((2S,3S)-3-amino-1-methoxybutan-2-yl)amino)-5-fluoro-2-((6-methyl-5-(2H-1,2,3-triazol-2-yl)pyridin-3-yl)amino)nicotinamide], the IC50 in assay [1] is 3000 to 6000 nM; in assay [2], 10 to 50 nM. As for `CCC[C@@H](Nc1nc(Nc2cnc(OC)c(-n3ccnn3)c2)c(C(N)=O)cc1F)[C@H](C)N` [Example 2-205, 6-(((2S,3R)-2-aminohexan-3-yl)amino)-5-fluoro-2-((6-methoxy-5-(1H-1,2,3-triazol-1-yl)pyridin-3-yl)amino)nicotinamide], the results for the IC50 in assay [1] and in assay [2] were 1000 to 3000 nM and 10 to 50 nM, respectively. Regarding `COCCOc1ncc(Nc2nc(N[C@H](C3CCC3)[C@H](C)N)c(F)cc2C(N)=O)cc1F` [Example 2-116, 6-(((1R,2S)-2-amino-1-cyclobutylpropyl)amino)-5-fluoro-2-((5-fluoro-6-(2-methoxyethoxy)pyridin-3-yl)amino)nicotinamide], the IC50 in assay [1] fell in the range of 1000 to 3000 nM; in assay [2], 10 to 50 nM. For `CCC[C@@H](Nc1nc(Nc2cncc3c2cnn3CC(F)F)c(C(N)=O)cc1F)[C@H](C)N` [Example 2-397, 6-(((2S,3R)-2-aminohexan-3-yl)amino)-2-((1-(2,2-difluoroethyl)-1H-pyrazolo[3,4-c]pyridin-4-yl)amino)-5-fluoronicotinamide], the IC50 in assay [1] is 1000 to 3000 nM; in assay [2], less than 10 nM. For `NC[C@@H](Cc1ccccc1)Nc1nc(Nc2cnc(N3CCOCC3)c(F)c2)c(C(N)=O)cc1F` [Example 2-365, (R)-6-((1-amino-3-phenylpropan-2-yl)amino)-5-fluoro-2-((5-fluoro-6-morpholinopyridin-3-yl)amino)nicotinamide], the IC50 in assay [1] was less than 1000 nM; in assay [2] it was 50 to 100 nM.

`NC(=O)c1cc(F)c(N[C@@H]2CCOC[C@@H]2N)nc1Nc1cncc2c1cnn2CC(F)F` [Example 2-394, 6-(((3R,4R)-3-aminotetrahydro-2H-pyran-4-yl)amino)-2-((1-(2,2-difluoroethyl)-1H-pyrazolo[3,4-c]pyridin-4-yl)amino)-5-fluoronicotinamide]: the IC50 in assay [1] is 3000 to 6000 nM; in assay [2], less than 10 nM. Regarding `CCCC[C@@H](Nc1nc(Nc2cnc3c(c2)c(N(C)C)nn3C)c(C(N)=O)cc1F)[C@H](C)N` [Example 2-291, 6-(((2S,3R)-2-aminoheptan-3-yl)amino)-2-((3-(dimethylamino)-1-methyl-1H-pyrazolo[3,4-b]pyridin-5-yl)amino)-5-fluoronicotinamide], the IC50 was 1000 to 3000 nM in assay [1] and 10 to 50 nM in assay [2]. For `CSCC[C@@H](Nc1nc(Nc2cnc(C)c(-n3nccn3)c2)c(C(N)=O)cc1F)[C@H](C)N` [Example 2-343, 6-(((3R,4S)-4-amino-1-(methylthio)pentan-3-yl)amino)-5-fluoro-2-((6-methyl-5-(2H-1,2,3-triazol-2-yl)pyridin-3-yl)amino)nicotinamide], the IC50 is 1000 to 3000 nM in assay [1] and 10 to 50 nM in assay [2]. The like results for `CCC[C@@H](Nc1nc(Nc2ccc3c(c2)c(OC(F)F)nn3C)c(C(N)=O)cc1F)[C@H](C)N` [Example 2-349, 6-(((2S,3R)-2-aminohexan-3-yl)amino)-2-((3-(difluoromethoxy)-1-methyl-1H-indazol-5-yl)amino)-5-fluoronicotinamide] were, in that order, 1000 to 3000 nM and less than 10 nM. Regarding `Cn1nc(OC(F)F)c2cc(Nc3nc(N[C@@H]4CCCC[C@@H]4N)c(F)cc3C(N)=O)ccc21` [Example 2-169, 6-(((1R,2S)-2-aminocyclohexyl)amino)-2-((3-(difluoromethoxy)-1-methyl-1H-indazol-5-yl)amino)-5-fluoronicotinamide], the results for the IC50 in assay [1] and in assay [2] were less than 1000 nM and less than 10 nM, respectively. For `COCCn1nc(OC(F)F)c2cc(Nc3nc(N[C@H](COC)[C@H](C)N)c(F)cc3C(N)=O)ccc21` [Example 2-178, 6-(((2S,3S)-3-amino-1-methoxybutan-2-yl)amino)-2-((3-(difluoromethoxy)-1-(2-methoxyethyl)-1H-indazol-5-yl)amino)-5-fluoronicotinamide], in that order: 1000 to 3000 nM and less than 10 nM.

For `CCn1ncc2c(Nc3nc(N[C@H](COC)[C@H](C)N)c(F)cc3C(N)=O)cncc21` [Example 2-323, 6-(((2S,3S)-3-amino-1-methoxybutan-2-yl)amino)-2-((1-ethyl-1H-pyrazolo[3,4-c]pyridin-4-yl)amino)-5-fluoronicotinamide], the IC50 in assay [1] is 1000 to 3000 nM; in assay [2], 10 to 50 nM. Regarding `COCCOc1cc(Nc2nc(N[C@H](Cc3ccccc3)[C@H](C)N)c(F)cc2C(N)=O)ccn1` [Example 2-427, 6-(((2R,3S)-3-amino-1-phenylbutan-2-yl)amino)-5-fluoro-2-((2-(2-methoxyethoxy)pyridin-4-yl)amino)nicotinamide], the values for the IC50 in assay [1] and in assay [2] were 1000 to 3000 nM and 10 to 50 nM, respectively.

On to `COc1nn(C)c2c(F)cc(Nc3nc(N[C@H](C4CCC4)[C@H](C)N)c(F)cc3C(N)=O)cc12` [Example 2-158, 6-(((1R,2S)-2-amino-1-cyclobutylpropyl)amino)-5-fluoro-2-((7-fluoro-3-methoxy-1-methyl-1H-indazol-5-yl)amino)nicotinamide], for which the IC50 in assay [1] was less than 1000 nM; in assay [2] it was less than 10 nM.

In the case of `CC[C@H](N)[C@@H](C)Nc1nc(Nc2cc(F)c3c(c2)c(N(C)C)nn3C)c(C(N)=O)cc1F` [Example 2-194, 6-(((2R,3S)-3-aminopentan-2-yl)amino)-2-((3-(dimethylamino)-7-fluoro-1-methyl-1H-indazol-5-yl)amino)-5-fluoronicotinamide], the IC50 in assay [1] is 1000 to 3000 nM; in assay [2], less than 10 nM. Take `CC[C@@H](Nc1nc(Nc2cncc3c2cnn3CC)c(C(N)=O)cc1F)[C@H](C)N` [Example 2-318, 6-(((2S,3R)-2-aminopentan-3-yl)amino)-2-((1-ethyl-1H-pyrazolo[3,4-c]pyridin-4-yl)amino)-5-fluoronicotinamide]: the IC50 in assay [1] is 1000 to 3000 nM; in assay [2], less than 10 nM. `COCCn1nc(OC)c2cc(Nc3nc(N[C@H](COC)[C@H](C)N)c(F)cc3C(N)=O)ccc21` [Example 2-128, 6-(((2S,3S)-3-amino-1-methoxybutan-2-yl)amino)-5-fluoro-2-((3-methoxy-1-(2-methoxyethyl)-1H-indazol-5-yl)amino)nicotinamide]: the IC50 is 1000 to 3000 nM in assay [1] and 10 to 50 nM in assay [2]. On to `CCn1ncc2c(Nc3nc(N[C@@H](CN)CC(C)C)c(F)cc3C(N)=O)cncc21` [Example 2-405, (R)-6-((1-amino-4-methylpentan-2-yl)amino)-2-((1-ethyl-1H-pyrazolo[3,4-c]pyridin-4-yl)amino)-5-fluoronicotinamide], for which the results for the IC50 in assay [1] and in assay [2] were 1000 to 3000 nM and less than 10 nM, respectively. As to `NC[C@@H](Cc1ccccc1)Nc1nc(Nc2ccc(N3CCOCC3)nc2)c(C(N)=O)cc1F` [Example 2-420, (R)-6-((1-amino-3-phenylpropan-2-yl)amino)-5-fluoro-2-((6-morpholinopyridin-3-yl)amino)nicotinamide], the IC50 in assay [1] was less than 1000 nM. In the case of `COCCn1nc(C)c2cc(Nc3nc(N[C@H](C4CC4)[C@H](C)N)c(F)cc3C(N)=O)ccc21` [Example 2-133, 6-(((1R,2S)-2-amino-1-cyclopropylpropyl)amino)-5-fluoro-((1-(2-methoxyethyl)-3-methyl-1H-indazol-5-yl)amino)nicotinamide], the IC50 in assay [3] was 65 to 130 nM; in assay [2] it was less than 10 nM.

Turning to `CCC[C@@H](Nc1nc(Nc2ccc3c(c2)c(OC)nn3C)c(C(N)=O)cc1F)[C@H](C)N` [Example 2-80, 6-(((2S,3R)-2-aminohexan-3-yl)amino)-5-fluoro-2-((3-methoxy-1-methyl-1H-indazol-5-yl)amino)nicotinamide], the values for the IC50 in assay [3] and in assay [2] were 65 to 130 nM and less than 10 nM, respectively. For the molecule `COC[C@@H](Nc1nc(Nc2cc(F)c3c(c2)c(OC)nn3C)c(C(N)=O)cc1F)[C@H](C)N` [Example 2-159, 6-(((2S,3S)-3-amino-1-methoxybutan-2-yl)amino)-5-fluoro-2-((7-fluoro-3-methoxy-1-methyl-1H-indazol-5-yl)amino)nicotinamide], the IC50 in assay [3] was 65 to 130 nM; in assay [2], less than 10 nM.

(Values after patent US9051310B2, “Nicotinamide derivative or salt thereof” (FUJIFILM Corporation, priority 2011, dated 2015).)
